The target of one assay is T1, human p38 kinase alpha (Homo sapiens, UniProt Q16539).
T1 construct: The coding region of the human p38a cDNA was obtained by PCR-amplification from RNA isolated from the human monocyte cell line THP.1; GST (N); made in house; host or cells: E. coli DH10B
As to the kind of experiment: p38 kinase in vitro assay, phosphorylation of biotinylated PHAS-I with gamma 32P-ATP. Type of assay: biochemical. Conditions: for inhibition at 10 µM / inhibition at 1 µM: read-out: P38 alpha kinase % inhib @ conc. The method, boiled down:
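MKK6-activated human p38α phosphorylates biotinylated PHAS-I with γ-32P-ATP in 25 mM HEPES pH 7.5, 10 mM Mg acetate, 50 μM unlabeled ATP, 1% DMSO, 30 °C for 1 h or overnight. Compounds at 100–0.001 μM (10-fold steps, triplicate); substrate captured on streptavidin filter plates and counted by scintillation.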

Another assay relates to TNF-α. As to the kind of experiment: LPS stimulation of TNF production by U937 cells. Type of assay: cell-based, human. Conditions: Homo sapiens; for inhibition at 1 µM: U-937, @ 1.0 uM, read-out: U937 Cell % inhib @ conc. The method, boiled down:
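PMA-differentiated human U937 cells (20 ng/ml PMA, 24 h, then 24-48 h rest) at 2 million cells/ml, 0.1% DMSO final, stimulated with E. coli LPS (100 ng/ml final) for 4 h at 37° C. TNF-α in medium measured by ELISA; IC50 in μM.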

The mark [1] stands for this setting: read-out: P38 alpha kinase IC50.
Setting [2] is: p38α in vitro, PHAS-I assay procedure, read-out: p38^1 IC50.
Setting [3] is: U-937, LPS-stimulated U937 cells, read-out: U937 IC50.

Like-named read-outs stand apart in the source and are kept apart here. Some results are limits rather than exact numbers.

T1 sequence (Q16539 whole entry): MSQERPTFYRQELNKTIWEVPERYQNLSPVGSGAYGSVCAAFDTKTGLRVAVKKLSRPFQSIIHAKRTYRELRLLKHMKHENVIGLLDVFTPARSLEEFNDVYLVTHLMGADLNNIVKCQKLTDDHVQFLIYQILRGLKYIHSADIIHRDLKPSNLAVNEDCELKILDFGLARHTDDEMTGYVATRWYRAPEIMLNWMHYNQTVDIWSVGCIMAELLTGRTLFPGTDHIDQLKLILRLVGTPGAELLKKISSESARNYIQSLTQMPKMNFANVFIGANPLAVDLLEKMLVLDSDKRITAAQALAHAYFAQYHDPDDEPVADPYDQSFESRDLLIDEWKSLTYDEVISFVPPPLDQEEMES

`CN(C)c1cccc2c(S(=O)(=O)NCc3[nH]nc(-c4ccc(F)cc4)c3-c3ccncc3)cccc12` [Example B-0122]: the inhibition at 10 µM at human p38 kinase alpha was determined as 79%. Moreover, the inhibition at 1 µM in the assay with TNF-α came to 2%.
A word on the IC50: it is the concentration needed to halve the response being measured. For `COC(=O)NCc1[nH]nc(-c2ccc(F)cc2)c1-c1ccncc1` [Example B-0207], the IC50 at human p38 kinase alpha (setting [1]) amounted to 120 nM. For the same compound, the inhibition at 1 µM in the assay with TNF-α was 52%.
The matching figures for `C[C@@H](NS(=O)(=O)c1ccc(S(=O)(=O)c2ccccc2)s1)c1[nH]nc(-c2ccc(F)cc2)c1-c1ccncc1` [Example B-0488]: 620 nM and 88%.
For the compound `C=CCNC(=O)N[C@H](C)c1[nH]nc(-c2ccc(F)cc2)c1-c1ccncc1` [Example B-0412], the IC50 on human p38 kinase alpha (setting [1]) turned out to be 240 nM. Further, the inhibition at 1 µM in the assay on TNF-α worked out at 48%.
Consider `CCN(CC)CCn1cc(-c2ccnc(NCc3ccc(F)cc3)c2)c(-c2ccc(F)cc2)n1` [Example A-279, 4-[1-[2-(diethylamino)ethyl]-3-(4-fluorophenyl)-1H-pyrazol-4-yl]-N-[(4-fluorophenyl)methyl]-2-pyridinamine], for which the IC50 at human p38 kinase alpha (setting [2]) is 5 nM; with TNF-α (setting [3]), 700 nM.
In the case of `O=C(NCc1[nH]nc(-c2ccc(F)cc2)c1-c1ccncc1)N[C@@H]1C[C@@H]1c1ccccc1` [Example B-0153], the values for the inhibition at 1 µM on human p38 kinase alpha and in the assay on TNF-α were 57% and 21%, respectively.
For the compound `Cc1cccc(C)c1NC(=O)N[C@H](C)c1[nH]nc(-c2ccc(F)cc2)c1-c1ccncc1` [Example B-0411], the concentration for half-maximal inhibition (IC50) on human p38 kinase alpha (setting [1]) worked out at 620 nM. The inhibition at 1 µM in the assay on TNF-α came to 50%.
The matching figures for `CN(C)S(=O)(=O)NCc1[nH]nc(-c2ccc(F)cc2)c1-c1ccncc1` [Example B-0264]: 140 nM and 18%.
With `O=S(=O)(NCc1[nH]nc(-c2ccc(F)cc2)c1-c1ccncc1)c1cccc(Cl)c1Cl` [Example B-0230], the IC50 on human p38 kinase alpha (setting [1]) is 41 nM. Besides, the inhibition at 1 µM with TNF-α is 30%.
Turning to `O=C(NCc1[nH]nc(-c2ccc(F)cc2)c1-c1ccncc1)c1cccc2ccccc12` [Example B-0275], the IC50 on human p38 kinase alpha (setting [1]) worked out at 2670 nM. Further, the inhibition at 1 µM with TNF-α was 33%.
For the compound `C#CCNc1[nH]nc(-c2ccc(F)cc2)c1-c1ccncc1` [Example A-288, 5-(4-fluorophenyl)-N-2-propynyl-4-(4-pyridinyl)-1H-pyrazol-3-amine], the IC50 at human p38 kinase alpha (setting [2]) came out at 17 nM; in the assay with TNF-α (setting [3]) it was 300 nM.
`CC(C)(C)c1ccc(S(=O)(=O)NCc2[nH]nc(-c3ccc(F)cc3)c2-c2ccncc2)cc1` [Example B-0099]: the inhibition at 1 µM on human p38 kinase alpha was 43%. In addition, the IC50 with TNF-α (U-937, TNF production, LPS-stimulated human U937 cells, read-out: U937 Cell IC50) was above 1000 nM.
On to `C[C@@H](NC(=O)c1ccccc1)c1[nH]nc(-c2ccc(F)cc2)c1-c1ccncc1` [Example B-0375], for which the IC50 on human p38 kinase alpha (setting [1]) was found to be 1000 nM. In addition, in the assay on TNF-α, the inhibition at 1 µM was 19%.
On to `C[C@@H](NC(=O)c1cc2ccccc2s1)c1[nH]nc(-c2ccc(F)cc2)c1-c1ccncc1` [Example B-0496], for which the IC50 at human p38 kinase alpha (setting [1]) is 830 nM. In the assay with TNF-α, the inhibition at 1 µM amounted to 16%.
As for `O=S(=O)(NCc1[nH]nc(-c2ccc(F)cc2)c1-c1ccncc1)c1ccc2ccccc2c1` [Example B-0110], the inhibition at 1 µM at human p38 kinase alpha was 66%; with TNF-α, 13%.
Turning to `O=C(NCc1[nH]nc(-c2ccc(F)cc2)c1-c1ccncc1)Nc1ccc(C(F)(F)F)cc1` [Example B-0163], the inhibition at 10 µM on human p38 kinase alpha amounted to 20%. In the assay with TNF-α, the inhibition at 1 µM is 10%.
Regarding `CC(=O)Nc1ccc(S(=O)(=O)NCc2[nH]nc(-c3ccc(F)cc3)c2-c2ccncc2)cc1` [Example B-0223], at human p38 kinase alpha (setting [1]), the IC50 worked out at 200 nM. Further, the inhibition at 1 µM with TNF-α came to 1%.
For the compound `O=C(NCc1[nH]nc(-c2ccc(F)cc2)c1-c1ccncc1)c1cccc(OC(F)(F)F)c1` [Example B-0060], the inhibition at 1 µM on human p38 kinase alpha is 73%; with TNF-α it was 22%.
As for `CC(C)c1ccc(S(=O)(=O)N[C@H](C)c2[nH]nc(-c3ccc(F)cc3)c2-c2ccncc2)cc1` [Example B-0446], the IC50 at human p38 kinase alpha (setting [1]) was 780 nM. The inhibition at 1 µM in the assay on TNF-α turned out to be 80%.

Source of the values: patent publication US6525059B1, “Substituted pyrazoles as p38 kinase inhibitors” (G. D. Searle & Company, priority 1998, dated 2003).
